How the values were obtained:
[1] = tested on: humane Spermien; experiment: Ca2+ imaging of head and midpiece of single human spermatozoa; type: cell-based
Source text: Die Ca^2+-imaging-Experimente wurden auf dem Träger eines invertierten Zeiss-Mikroskopes durchgeführt, das für die ratiofluorometrische Bildgebung mit einer Xenon-Bogenlampe, einem Vielfach-Wellenlängen-Illuminations-System POLYCH-ROM II zur Anregung, einer gekühlten charge-coupled device (CCD)-Kamera und einer WinNT-basierten T.I.L.L.-Vision-Software zum Sammeln und raum- und zeitabhängigen Quantifizieren Ca^2+-abhängiger Fluoreszenz-Signale (F340/F380-Verhältnis) ausgestattet war. HEK293-Zellen wurden mit 32-facher, Spermazellen mit 63-facher Vergrößerung beobachtet.
HEK293- und Spermazellen wurden unter Verwendung eines speziellen Applikations-Systems, das es gestattete, vorübergehend alle Zellen im Blickfeld aus einem von sechs benutzergewählten Kapillarröhrchen zu überspülen, Geruchs- und/oder Wirkstoffen (Testlösungen) ausgesetzt. Der Wechsel zwischen den Testlösungen erfolgte nahezu sofort; auch trat im Wesentlichen keine Wirkungsverzögerung nach dem Wechsel auf, weil die Röhrchenspitzen zum optischen Feld eng benachbart waren. Zwischen den Applikationen von Testlösungen überspülte ein Pufferlösungsstrom kontinuierlich alle Zellen im Gefäß, um jedwede potentielle Hintergrund-Anreicherung von Testlösungen (Geruchs- bzw. Wirkstoffen) zu minimieren. Alle Lösungen wurden bei Raumtemperatur appliziert. Alle verwendeten Geruchsstoffe stammten von Dr. T. Gerke, Henkel KGaA, Düsseldorf, FRG, andere Wirkstoffe wurden von Sigma gekauft. Zur Zusammensetzung der Henkel 100-Mischung vergleiche C. H. Wetzel et al., Journal of Neuroscience 19, 7426-7433 (1999).
Die mögliche Rolle von hOR17-4 in einem Ca^2+-vermittelten physiologischen Prozess in humanen Spermatozoen (z.B. Acrosomreaktion, Kapazitationsprozess oder Änderungen zur hyperaktivierten Beweglichkeit) wurden durch Ca^2+-Imaging der Kopf- und der Mittelregion von einzelnen humanen Spermien untersucht. Dazu wurden frisch von jungen, gesunden Spendern erhaltene humane Spermien unverzüglich in 1,5-ml Plastikröhrchen transferiert. Nach 30 minütiger aufrechter Inkubation bei 37 °C wurden 75 µl beweglicher Spermien aus der oberen Schicht der Spermiensuspension auf Concanavalin A-beschichtete 35 mm Petrischalen transferiert und 45 Minuten lang bei Raumtemperatur in 1 ml Ladungspuffer (pH 7,4) mit 140 mM NaCl, 5 mM KCI, 2 mM CaCl2, 2 mM MgCl2, 10 mM Hepes, 10 mM Glucose, 5 µM Fura-2-AM (Molecular Probes), and 0,1 % Pluronic F-127 inkubiert. Danach wurde das Medium sanft durch Fura-2-AM-freie Pufferlösung ausgewechselt. Nicht an den Boden angeheftetes Sperma wurde durch diesen Schritt entfernt. Ca^2+-Bilder wurden von 8 bis 15 Spermatozoen in einem zufällig gewählten Sichtfeld aufgenommen. Die Fluoreszenzsignale eines Spermienkopfes und der Mittelregion wurden gemessen. […]

[2] = tested on: humane Spermien; experiment: Sperm activation bioassay: swimming speed by computer-assisted video motion analysis (CAVMA); type: cell-based, human
Protocol: Gefrorene Samenproben von fünf gesunden Spendern wurden aus der California Cryobank (Los Angeles, CA, USA) erhalten und für Bioassays gemäß den World Health Organization-Richtlinien (World Health Organization: Laboratory for the examination of human serum and semen-cervical mucus interaction, Cambridge University Press (1993)) vorbereitet. Nachdem die Suspensionen auf 37 °C für 10 Minuten gebracht worden waren, wurde jede Probe in HEPES-gepufferter humaner Tubarflüssigkeit (HTF; Irvine Scientific, Santa Ana, CA, USA) überführt und auf 10^7 Zellen/ml eingestellt. Die Lösungen wurden dann bei 37 °C in einer 5 %-igen CO2-Atmosphäre aufbewahrt und innerhalb von 30 Minuten für Experimente verwendet (P. Quinn, Journal of Assisted Reproductive Genetics 12, 97-105 (1995)). Die Reaktionen von Sperma auf Bourgeonal wurde (a) durch computer-assisted video motion analysis (CAVMA) gemessen, um Veränderungen in der Schwimmgeschwindigkeit (Spermaaktivierung) zu detektieren, und (b) in einem flat capillary-Assay für die Chemotaxis in der Nähe einer Diffusionsmaterialquelle untersucht. Für jede Test-oder Kontroll-Behandlung wurden fünf wiederholte Experimente unter Verwendung von Sperma der fünf Spender durchgeführt. Die Daten der Bioassays wurden statistisch durch Ein-Weg-Varianzanalyse (ANOVA) unter Verwendung eines post-hoc Scheffe-Tests (R. W. Day and G. P. Quinn, Ecol. Monogr. 59, 433-463 (1989)) analysiert. Eine Bonferroni-Korrektur wurde zum Angleichen der α-Levels für multiple Vergleiche verwendet.
Zur Untersuchung der Spermien-Aktivierung wurden Bioassays für die Schwimmgeschwindigkeit bei 37 °C durchgeführt. Spermien wurden sanft einer Kontroll- oder Testlösung einheitlicher Konzentration zugefügt. Die Bilder von Spermien (3,0 x 10^3 Zellen/ml) wurden dann unter Verwendung einer Videokamera (NEC Modell TI 23A), die auf einem Olympus IX70-Lichtmikroskop montiert war, bei 90-facher Vergrößerung aufgenommen. Um mögliche Artefakte durch Reibungskräfte zu minimieren, besaß die Kamera eine 100 µm Feldtiefe und fokussierte auf eine Region, die annäherend 2 mm von der nächsten Oberfläche entfernt war. Videobilder von Spermien wurden mit 30 Bildern/Sekunde digitalisiert und über 10-Sekundenintervalle unter Verwendung eines CAVMA-Systemes (Motion Analysis Corporation, Modell VP 320, Expert Vision und Benutzter-Software), verbunden mit einer Sun SPARC 2 Computer-Arbeitsstation bearbeitet (J. A. Riffell, P. J. Krug, R. K. Zimmer, Journal of Experimental Biology 205, 1439-1450 (2002)). Die Schwimmgeschwindigkeit wurde auf einer Bild-zu-Bild-Basis bestimmt und danach über jeden einzelnen zurückgelegten Weg gemittelt. Um zu vermeiden, sich horizontal anstatt vertikal bewegende Zellen zu messen, wurden kurze Wege mit weniger als 11 Bildern verworfen, bei denen sich die Spermien um mehr als 20 % in ihrer scheinbaren Größe veränderten.

SMILES | vorübergehende Ca^2+-Antworten, Anteil aller getesteten Spermatozoen ([1]; 5 s application, 43 of 119 spermatozoa, 12 experiments) | Schwellenwert (Konzentration für Ca^2+-Antwort) ([1]; about two orders of magnitude lower than for recombinant receptor) | Effizienz (Reihenfolge der Agonisten) in Spermien ([1]; direct comparison in the same sperm) | Konzentration ohne weiteren Anstieg der Schwimmgeschwindigkeit [2] | EC50 ([2]; Homo sapiens, Sperm, 37 °C, read-out: ED50 (Konzentration, die die halbmaximale Antwort hervorruft), Schwimmgeschwindigkeit) | Konzentrationen mit signifikanten Antworten im Verhältnis zur HTF-Kontrolle, Schwimmgeschwindigkeit ([2]; Scheffé test P ≤ 0,03) | Blockade der Ca^2+-Antworten auf Bourgeonal ([1]; co-application at same concentration as Bourgeonal, with or without pre-incubation, n = 10) | Effekt auf das Spermienverhalten, Schwimmgeschwindigkeit ([2]; 10^-7 M alone, P > 0,99) | Schwimmgeschwindigkeit als Antwort auf 10^-7 M Bourgeonal relativ zur HTF-Kontrolle ([2]; co-applied with 10^-6, 10^-7 or 10^-8 M n-Undecanal, P > 0,99)
CC(C)(C)c1ccc(CCC=O)cc1 [Bourgeonal] | 36% | ≥ 10^-8 M | potentesten getesteten Liganden | > 10^-6 M | 0.03 µM | ≥ 10^-8 M |  |  | 
CCCCCCCCCCC=O [n-Undecanal] |  |  |  |  |  |  | blockierte vollständig | keinen messbaren Effekt | nicht signifikant erhöht
